Where two headings read alike, the source gives them in different places.
Columns and labels:
NSCLC H460 cells = assay: Drug-treated clonogenic assay (surviving fraction, ID50) on siRNA/shRNA-transfected cells; type: cell-based, Human; details: for IC50: Homo sapiens, NCI-H460, Table 2, read-out: ID50 ± SEM; for RS (relative sensitivity): Table 2; for change in drug sensitivity (clonogenic survival): H460
Protocol: (§1) Cells were transfected for 24 h and approximately 600 cells (for Calu-6) or 150 cells (for H460) were seeded into each well of a 6-well plate and allowed to attach for 4-6 h. The cell lines used in this study were not subject to prior drug selection, and are likely to represent intrinsic drug resistance observed in lung carcinoma.
(§2) Cells were then treated with increasing concentrations of various anti-mitotic drugs. Following a 3-day incubation at 37° C., the drug-containing medium was removed and replaced with fresh complete medium. Medium was changed at 3-4 day intervals for 7 to 10 days until visible colonies formed. […] Surviving colonies were simultaneously fixed and stained with 0.5% crystal violet in methanol, rinsed with water to remove excess stain and air-dried overnight.
(§3) The colonies in each well were manually counted, and the results were presented as surviving fraction according to the formula: surviving fraction was calculated as follows: colony number/(number of cells seeded×plating efficiency), where plating efficiency is equivalent to the colony number divided by the number of cells seeded in the drug-free medium. Dose-response curves were plotted for each drug-cell line combination and inhibitory dose (ID50) values were extrapolated from this curve using GraphPad Prism program (GraphPad Software, version 4, San Diego, Calif.). ID50 was defined as the concentration of the drug required to reduce the number of colonies in drug-treated wells to 50% of that of the relevant untreated control wells. The ID50 values were the means of at least four independent experiments.
(§4) To quantitate any change in drug sensitivity, drug treated clonogenic assays were performed. Twenty-four hours after siRNA transfection, cells were harvested and plated into 6-well plates for 6 h, prior to the addition of various drugs as indicated in the figure legends. After 72 h incubation, the drug-containing media was removed and replaced with complete growth media. Medium was changed every 3 days for 7 to 10 days until visible colonies formed. Colonies were simultaneously fixed and stained with 0.5% crystal violet in methanol, and manually counted. Individual stained colonies in each well were counted and the surviving fraction was calculated as follows: colony number/(number of cells seeded×plating efficiency), where plating efficiency equals the colony number divided by the number of cells seeded in drug-free media.

Calu-6 cells [1] = assay: Drug-treated clonogenic assay on siRNA-transfected cells; type: cell-based, Human
Protocol: as §1, §2, §3, §4

H460 cells = assay: Cell cycle analysis by flow cytometry (propidium iodide); type: cell-based, Human; details: 24 h
Protocol: The distribution of DNA content in βII or βIVb tubulin siRNA-transfected H460 cells was determined by flow cytometry. After 72 h transfection, transfected cells were exposed to vincristine at 5 nM or 40 nM concentrations for 24 h. On the day of analysis, both adherent and floating cells were harvested, washed with PBS and then stained with a solution containing 0.4% Triton® X-100 (Sigma), 50 μg/ml propidium iodide (Sigma), and 2 μg/ml DNase-free RNase (Roche, Indianapolis, Ind.) in the dark for 15 min at 37′C. DNA content was measured by a FACSCalibur flow cytometer (Becton Dickinson, San Diego, Calif.). The flow rate was <200 nuclei per second and 10,000 cells from each sample were analysed. Measurements were performed under the same instrumental settings. The CellQuest® program was used to quantitate the distribution of cells in each cell cycle phase: sub-G1 (apoptotic cells), G1, S and G2/M.
To determine whether βIII-tubulin silencing affects the cell cycle profiles, cell cycle analysis using flow cytometry was performed. Cell cycle analysis was determined by transfecting H460 cells with siRNA for 72 h and harvesting (adherent and suspension) cells 24 h after drug treatment. DNA content was stained for 15 min at 37° C. with a solution containing 0.4% Triton® X-100 (Sigma-Aldrich), 50 μg/ml propidium iodide (Sigma-Aldrich), and 2 μg/ml DNAse-free RNAse (Roche, Indianapolis, Ind.). The cells were then analyzed for cell cycle perturbation using a FACSCalibur (Becton-Dickinson, Franklin Lakes, N.J.). The CellQuest® program was used to quantitate the distribution of cells in each cell cycle phase: sub-G1(apoptotic cells), G1, S and G2/M.

CCRF-CEM Leukaemia cells = type: cell-based; details: lowest resistant subline CEM/2ME2-3.6R only
Source text: The tubulin-binding agent 2-methoxyestradiol (2ME2) binds to β-tubulin near the colchicine-binding site, inhibits microtubule polymerization, and induces mitotic arrest. CCRF-CEM Leukaemia cells that display increasing resistance to 2ME2 were selected, and four of the highly 2ME2 resistant leukaemia sublines were chosen for detailed analysis.

Calu-6 cells [2] = assay: Immunofluorescent staining of microtubules (α-tubulin) after drug treatment; type: cell-based, Human; details: 1 h, vs control
Protocol: Transfected Calu-6 cells were grown on sterile chamber slides until 60-70% confluent. Cells were then treated with paclitaxel and vincristine for 1 h at 10 nM. Cells were fixed in methanol and processed for staining as previously described (Don et al. (2004) supra) with minor modifications. Fixed cells were stained with α-tubulin (1:400 in 5% FCS/PBS, Sigma) for 30 min followed by Cy2 anti-mouse fluorescent tagged antibody (1:1,000 in 5% FCS/PBS, GE Healthcare). Slides were mounted on a coverslip using DAPI II Counterstain (Vysis Inc., Downers Grove, Ill.). Slides were viewed using a Zeiss Axioplan 2 Immunofluorescence Microscope (Mannheim, Germany) with Image-Pro® Plus 4.1 software (Media Cybernetics, L.P., Silver Spring, Md.).
To assess the effects of βIII downregulation on microtubule organization, immunofluorescence staining was performed on transfected Calu-6 cells as follows. Briefly, siRNA transfected cells were plated in glass chamber slides and allowed to reach 70% confluence. Cells were then treated with 10 nM of paclitaxel or vincristine for 1 hour. Drug was then removed by washing cells with PBS and blocked in 10% FCS/PBS. For dual staining, cells were first labelled with an antibody to class III β-tubulin which was exposed to cells incubated at 37° C. for 30 minutes in a humidified chamber. Following washes in 0.1% Tween 20/PBS at room temperature, the slides were incubated with Cy3 anti-mouse fluorescent-tagged antibody (GE Healthcare) for 40 minutes in a humidified chamber in the dark at room temperature. Following incubation, the slides were washed again in 0.1% Tween 20/PBS. This was then followed by staining with α-tubulin and Cy2 anti-mouse fluorescent tagged antibody (GE Healthcare). Slides were mounted on a coverslip using DAPI II Counterstain (Vysis Inc., Downers Grove, Ill.). Immunofluorescence microscopy was performed and images were captured using a Sensicam Charged Coupled Device camera (PCO Imaging, Kelheim, Bavaria, Germany) and the Image-Pro® Plus 4.1 software (Media Cybernetics, L.P., Silver Spring, Md.).

[3] = 27-mer βIII siRNA Sequence-8 H460 cells
[4] = 27-mer βIII siRNA Sequence-11 H460 cells
[5] = class II β-tubulin siRNA knockdown vs controls
[6] = class IVb β-tubulin siRNA knockdown vs controls

Work on `CC[C@]1(O)C[C@H]2CN(CCc3c([nH]c4ccccc34)[C@@](C(=O)OC)(c3cc4c(cc3OC)N(C=O)[C@H]3[C@@](O)(C(=O)OC)[C@H](OC(C)=O)[C@]5(CC)C=CCN6CC[C@]43[C@@H]65)C2)C1` [VCR, vincristine] yielded an IC50 (NSCLC H460 cells; [3]) of 1.68 ± 0.116 nM, an IC50 (NSCLC H460 cells; [4]) of 2.95 ± 0.175 nM and an IC50 (NSCLC H460 cells; Ctrl-1 (27-mer control siRNA) H460 cells) of 4.25 ± 0.18 nM. For the same compound, the IC50 (NSCLC H460 cells; mock-transfected H460 cells) was 3.99 ± 0.158 nM, the “RS (relative sensitivity)” value (NSCLC H460 cells; [3]) was “(2.37, <0.0001***)” and the “RS (relative sensitivity)” value (NSCLC H460 cells; [4]) was “(1.34, 0.001**)”. The “RS (relative sensitivity)” value (NSCLC H460 cells; Ctrl-1 H460 cells) was “(0.94, NS)”, the “change in drug sensitivity (clonogenic survival)” value (from here on “change in drug sensitivity”) (NSCLC H460 cells; [5]) was “significantly sensitized” and the “change in drug sensitivity” value (NSCLC H460 cells; [6]) was “precipitous drop in surviving colonies”. The “change in drug sensitivity” value (NSCLC H460 cells; βIII-tubulin siRNA silencing vs controls) was “significant increase in sensitivity”, the “change in drug sensitivity” value (Calu-6 cells [1]; [5]) was “significantly sensitized” and the “change in drug sensitivity” value (Calu-6 cells [1]; [6]) was “hypersensitive”. For the same compound, the cell cycle profile (H460 cells; βII siRNA transfectants, 5 nM) was “increase in the G2/M and sub-G1 populations”, the cell cycle profile (H460 cells; βII siRNA transfectants, 40 nM) was “greater G2/M accumulation” and the cell cycle profile (H460 cells; βIVb siRNA transfectants, 5 nM) was “increase in the G2/M and sub-G1 populations”. For the same compound, the cell cycle profile (H460 cells; βIVb siRNA transfectants, 40 nM) was “failed to undergo G2/M arrest”, the cross-resistance (CCRF-CEM Leukaemia cells) was “cross-resistance” and the microtubule morphology (Calu-6 cells [2]; βII siRNA-transfected Calu-6, 10 nM drug) was “dramatic disruption of the microtubule cytoskeleton”. For the same compound, the microtubule morphology (Calu-6 cells [2]; βIII siRNA-transfected Calu-6, 10 nM drug) was “extensive disruption of the microtubule cytoskeleton” and the microtubule morphology (Calu-6 cells [2]; βIVb siRNA-transfected Calu-6, 10 nM drug) was “dramatic disruption of the microtubule cytoskeleton”.
